Assay results as given in ChEMBL document CHEMBL1201862, “PubChem BioAssay data set” (2004).
Active and inactive are the calls of the source.

Legend:
Cytochrome P450 3A4 = Cytochrome P450 3A4 (Homo sapiens, UniProt P08684);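 further: CYP3A4 tested as one member of a cytochrome P450 panel screen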
[1] = target: Peroxisome proliferator-activated receptor gamma/Nuclear receptor coactivator 1 (Homo sapiens, UniProt P37231); experiment: (§1) TR-FRET dose response biochemical High Throughput Screening assay for agonists of the steroid receptor coactivator 1 (SRC-1) recruitment by the peroxisome proliferator-activated receptor gamma (PPAR gamma): non-selective agonists. [Related pubchem assays (depositor defined):AID1300, AID1808, AID504735, AID631]; assay type: protein assay
[2] = target: Peroxisome proliferator-activated receptor gamma/Nuclear receptor coactivator 3 (Homo sapiens, UniProt P37231); experiment: as §1, with “3 (SRC-3)” for “1 (SRC-1)”, “assays: 1301 (Confirmation screen.), 1048 (Primary screen.)]” for “assays (depositor defined):AID1300, AID1808, AID504735, AID631]”; assay type: functional
[3] = target: Peroxisome proliferator-activated receptor gamma/Nuclear receptor coactivator 2 (Homo sapiens, UniProt P37231); experiment: TR-FRET dose response biochemical High Throughput Screening assay for agonists of the steroid receptor coactivator 2 (SRC-2) recruitment by the peroxisome proliferator-activated receptor gamma (PPAR gamma): non-selective agonists. [Related pubchem assays: 1297, 1032 ]; assay type: functional
[4] = target: Mitogen-activated protein kinase 10 (Homo sapiens, UniProt P53779); experiment: Dose response biochemical screening assay for inhibitors of c-Jun N-Terminal Kinase 3 (JNK3). [Related pubchem assays: 746 ]
Major prion protein = Major prion protein (Homo sapiens, UniProt P04156); assay type: functional, cell-based
cells [5] = experiment: cells
HEK293 [6] = experiment: inhibition of NOD1-driven NF-kB reporter – cell-based, luminescence, uHTS, primary screen (AID 1578); assay type: functional; conditions: Homo sapiens
HEK293 [7] = experiment: cells; assay type: functional, cell-based; conditions: Homo sapiens
HEK293 [8] = experiment: cells; assay type: functional, cell-based; conditions: Homo sapiens; remark: listed apart in the source
HEK293 [9] = experiment: NOD2 signaling inhibitors in MDP-stimulated cells, cell-based, uHTS, luminescence (AID 2001); assay type: functional; conditions: Homo sapiens
[10] = HEK-293T viability loss after treatment – luminescence, T-cell screen hits, cytotoxicity control for TCR NF-kB inhibitor project, dose response (AID 489026); assay type: functional, cell-based;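 further: cells exposed to compound about 14 hours before the viability readout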
INS1 = experiment: INS-1E survival protection against cytokine death – cell-based, luminescence, retest, dose response (AID 449756); assay type: functional; conditions: Rattus norvegicus;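 further: cell death triggered by IL-1 beta plus TNF-alpha plus IFN-gamma mixture; protective hits raise ATP signal compared with cytokine alone wells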
[11] = target: T1, Heat shock factor protein 1 (Mus musculus, UniProt P38532); experiment: enhancement of HSF1-driven luciferase signal – cell-based, NIH3T3, luminescence, dose retest, confirmation (AID 435004); assay type: functional;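 further: stress induced by proteasome inhibitor MG132 added 30 min after compound; luciferase reporter driven by HSF1 response element in NIH3T3 cells; actives raise luminescence as potentiators of the MG132 stress response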
T1 sequence (P38532 whole entry): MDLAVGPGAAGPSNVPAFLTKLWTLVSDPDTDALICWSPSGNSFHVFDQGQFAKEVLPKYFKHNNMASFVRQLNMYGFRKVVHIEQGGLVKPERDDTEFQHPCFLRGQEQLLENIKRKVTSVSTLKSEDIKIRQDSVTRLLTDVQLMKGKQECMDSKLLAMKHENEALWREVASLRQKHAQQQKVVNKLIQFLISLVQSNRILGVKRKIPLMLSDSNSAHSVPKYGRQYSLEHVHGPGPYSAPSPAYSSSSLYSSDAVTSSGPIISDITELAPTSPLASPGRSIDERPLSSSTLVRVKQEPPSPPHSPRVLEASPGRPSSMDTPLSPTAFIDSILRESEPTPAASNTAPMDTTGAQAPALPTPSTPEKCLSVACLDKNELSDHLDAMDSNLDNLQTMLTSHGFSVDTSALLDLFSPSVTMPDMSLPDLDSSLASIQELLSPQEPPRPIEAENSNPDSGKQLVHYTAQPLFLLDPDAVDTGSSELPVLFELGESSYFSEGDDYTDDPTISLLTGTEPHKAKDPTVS

[12] = decrease of insulin promoter-GFP reporter – imaging, high-content screening, mouse beta cells (AID 1628); assay type: functional; conditions: MIN6
[13] = MIN6 cell viability loss – mouse insulinoma, cytotoxicity control, dose response (AID 2122); assay type: functional;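 further: confirmatory high-throughput counterscreen run to flag cytotoxic compounds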
[14] = THP-1 cell cytotoxicity, dose response, cytotoxicity control for non-replicating M. tuberculosis project (AID 489025); assay type: functional
[15] = HepG2 cell cytotoxicity, dose response, cytotoxicity control for non-replicating M. tuberculosis project (AID 489018); assay type: functional; conditions: Mycobacterium tuberculosis
[16] = Vero E6 cell cytotoxicity, dose response, cytotoxicity control for non-replicating M. tuberculosis project, secondary assay (AID 492998); assay type: functional, VeroE6; conditions: Vero C1008
cells [17] = assay type: functional
[18] = target: T2, Corticotropin-releasing factor receptor 2/Corticotropin-releasing factor-binding protein (Homo sapiens, UniProt P24387+Q13324); experiment: Dose Response confirmation of uHTS hits for small molecule antagonists of the CRF-binding protein and CRF-R2 receptor complex.; assay type: functional; conditions: read-out: IC50_Mean
T2 sequence (Q13324 whole entry): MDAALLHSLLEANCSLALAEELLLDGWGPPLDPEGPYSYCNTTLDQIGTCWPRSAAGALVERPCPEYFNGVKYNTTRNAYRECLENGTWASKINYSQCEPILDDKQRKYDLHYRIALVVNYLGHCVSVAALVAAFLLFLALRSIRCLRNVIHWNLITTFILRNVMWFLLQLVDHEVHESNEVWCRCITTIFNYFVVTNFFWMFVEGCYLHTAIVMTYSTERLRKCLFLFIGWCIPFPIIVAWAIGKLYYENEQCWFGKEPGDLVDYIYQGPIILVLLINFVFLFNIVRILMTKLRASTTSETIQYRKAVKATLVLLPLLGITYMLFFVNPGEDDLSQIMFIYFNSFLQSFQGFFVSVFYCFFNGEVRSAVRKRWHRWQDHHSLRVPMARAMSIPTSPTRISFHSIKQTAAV
T2 sequence (P24387 whole entry): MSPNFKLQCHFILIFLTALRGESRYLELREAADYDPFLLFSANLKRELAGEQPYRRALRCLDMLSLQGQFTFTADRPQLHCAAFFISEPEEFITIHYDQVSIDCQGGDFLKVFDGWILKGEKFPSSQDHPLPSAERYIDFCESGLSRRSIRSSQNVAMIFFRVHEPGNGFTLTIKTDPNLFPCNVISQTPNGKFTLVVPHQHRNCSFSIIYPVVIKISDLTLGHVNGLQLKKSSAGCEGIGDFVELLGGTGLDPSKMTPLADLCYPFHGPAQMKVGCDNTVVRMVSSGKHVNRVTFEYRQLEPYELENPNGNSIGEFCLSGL

[19] = reduction of Shn3 3'UTR-driven luciferase in osteoblasts – cell-based, Clone20 osteoblasts, firefly luciferase, cherry-picked, dose response (AID 624132); assay type: functional;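 further: firefly luciferase luminescence from reporter carrying the Shn3 3'UTR in osteoblasts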
[20] = loss of viability in HepG2 cells – cell-based, CellTiter-Glo, cherry-picked, cytotoxicity control for Shn3 inhibitor project, dose response (AID 624134); assay type: functional
[21] = target: T2, Corticotropin-releasing factor receptor 2/Corticotropin-releasing factor-binding protein; experiment: activators of CRF receptor 2 with binding protein – uHTS hits, confirmation (AID 602473); assay type: functional; conditions: read-out: EC50_Mean
[22] = non-specific 3'UTR reporter inhibition in Clone20-Shn3RL – cell-based, Renilla luciferase, cherry-picked, counter-screen for Shn3 inhibitor project, dose response (AID 624133); assay type: functional

Question: With `COCC(=O)N1CCN(c2ccc([N+](=O)[O-])cc2)CC1` as the molecule, how does the AC50 (Cytochrome P450 3A4) read?
Answer: inconclusive

Question: Which EC50 [1] does the source give for `COc1ccc(Cl)cc1-c1nnc(S)o1` here?
Answer: 3.67 µM (active)

Question: And the EC50 [2]?
Answer: > 79.4 µM (not active)

Question: What about the EC50 [3] of the same molecule?
Answer: 3.4 µM (active)

Question: What about the IC50 [4] of the same molecule?
Answer: 16.2 µM (not active)

Question: What about the IC50 (Major prion protein) of the same molecule?
Answer: 2.08 µM (active)

Question: And the IC50 (cells [5])?
Answer: > 138 µM (inactive)

Question: With `CCn1nc(C)c(CNC(=O)c2ccc(OC3CCN(Cc4ccccn4)CC3)cc2)c1C` as the molecule, how does the EC50 (HEK293 [6]) read?
Answer: 2.57 µM (active)

Question: And the IC50 (HEK293 [7])?
Answer: 4.94 µM (active)

Question: What about the IC50 (HEK293 [8]) of the same molecule?
Answer: 13.8 µM (active)

Question: And the IC50 (HEK293 [9])?
Answer: 9.64 µM (active)

Question: What about the IC50 [10] of the same molecule?
Answer: > 80 µM (inactive)

Question: What about the AC50 (INS1) of the same molecule?
Answer: 3.87 µM (active)

Question: Which EC50 [1] does the source give for `Cn1c(=O)cc(SCC(=O)N2CCOCC2)c2ccc(Cl)cc21` here?
Answer: > 79.4 µM (inactive)

Question: And the EC50 [2]?
Answer: > 79.4 µM (not active)

Question: And the EC50 [3]?
Answer: > 79.4 µM (not active)

Question: And the EC50 [11]?
Answer: > 260 µM (inactive)

Question: Which IC50 [12] does the source give for `Cc1cc(C)nc(N=C(N)Nc2ccc(-c3ccccc3)cc2)n1` here?
Answer: 1.56 µM (active)

Question: What about the IC50 [13] of the same molecule?
Answer: 1.36 µM (active)

Question: And the CC50 [14]?
Answer: 9.89 µM (active)

Question: And the CC50 [15]?
Answer: 18.2 µM (active)

Question: What about the CC50 [16] of the same molecule?
Answer: > 20 µM (active)

Question: What about the IC50 (cells [17]) of the same molecule?
Answer: 39 µM (active)

Question: And the IC50 [18]?
Answer: > 47.1 µM (inactive)

Question: And the AC50 [19]?
Answer: 4.45 µM (active)

Question: And the AC50 [20]?
Answer: > 70 µM (inactive)

Question: What about the EC50 [21] of the same molecule?
Answer: 31.7 µM (active)

Question: And the AC50 [22]?
Answer: 22.6 µM (active)
